What was measured:
Test in all cases: In vitro antibacterial evaluation: minimum inhibitory concentration (MIC), broth dilution method
Assay type in all cases: cell-based
Escherichia coli = conditions: broth dilution, 18 hours at 35° C.
Streptococcus sp. = conditions: broth dilution, 18 hours at 35° C.
Summary of the method: (§1)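 Test strains, among them recent clinical isolates carrying methicillin, penicillin and/or vancomycin resistance, were inoculated at 5×10^5 CFU/mL. A broth dilution series spanning 64-0.06 μg/mL in Muller-Hinton II […] (NCCLS M7-A2) defined the MIC as the lowest growth-inhibiting concentration.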

Enterococcus sp. = conditions: broth dilution, 18 hours at 35° C.
Summary of the method: as §1

Staphylococcus sp. = conditions: broth dilution, 18 hours at 35° C.; for MIC Staphylococcus aureus-SMITH (GC 4543): strain SMITH GC 4543
Summary of the method: as §1

[1] = Streptococcus agalactiae (GC 4564)
[2] = Streptococcus pneumoniae (ATCC 6301)
[3] = Streptococcus pneumoniae (GC 1894)
[4] = Streptococcus pneumoniae (GC 4565)
[5] = Streptococcus pyogenes (GC 4563)
[6] = Enterococcus faecalis (ATCC 29212)
[7] = Enterococcus faecalis (GC 2242)
[8] = Enterococcus faecalis (GC 2691)
[9] = Enterococcus faecalis (GC 3059)
[10] = Enterococcus faecalis (GC 4552)
[11] = Enterococcus faecalis (GC 4553)
[12] = Enterococcus faecalis (GC 4554)
[13] = Enterococcus faecalis (GC 6189)

CC(c1ccccc1)C1NC(=O)CNC(=O)C(CO)NC(=O)C(C(O)C2CNC(=N)N2C2OC(CO)C(O)C(O)C2O)NC(=O)C(C(O)C2CNC(=N)N2)NC(=O)C(Cc2ccc3oc(SCC(=O)c4ccccc4)nc3c2)NC1=O (stereo not shown) [Example 48]
4 µg/mL: MIC Escherichia coli (GC 4560) (Escherichia coli) | MIC Enterococcus faecium (GC 4557) (Enterococcus sp.; Enterococcus faecium (GC 4557)) | MIC Enterococcus faecium (GC 4557) (Enterococcus sp.) | MIC Coagulase Negative Staphylococcus (GC 4547) (Staphylococcus sp.) | MIC Coagulase Negative Staphylococcus (GC 4549) (Staphylococcus sp.)
8 µg/mL: MIC Streptococcus pneumoniae (GC 1894) (Streptococcus sp.; [3]) | MIC Streptococcus pyogenes (GC 4563) (Streptococcus sp.; [5]) | MIC Streptococcus pneumoniae (GC 1894) (Streptococcus sp.) | MIC Streptococcus pyogenes (GC 4563) (Streptococcus sp.) | MIC Enterococcus avium (GC 4558) (Enterococcus sp.; Enterococcus avium (GC 4558)) | MIC Enterococcus avium (GC 4558) (Enterococcus sp.) | MIC Coagulase Negative Staphylococcus (GC 4548) (Staphylococcus sp.) | MIC Staphylococcus haemolyticus (GC 4546) (Staphylococcus sp.)
64 µg/mL: MIC Enterococcus faecalis (ATCC 29212) (Enterococcus sp.; [6]) | MIC Enterococcus faecalis (GC 2242) (Enterococcus sp.; [7]) | MIC Enterococcus faecalis (GC 2691) (Enterococcus sp.; [8]) | MIC Enterococcus faecalis (GC 3059) (Enterococcus sp.; [9]) | MIC Enterococcus faecalis (GC 4552) (Enterococcus sp.; [10]) | MIC Enterococcus faecalis (GC 4554) (Enterococcus sp.; [12]) | MIC Enterococcus faecalis (GC 6189) (Enterococcus sp.; [13]) | MIC Enterococcus faecium (GC 4556) (Enterococcus sp.; Enterococcus faecium (GC 4556)) | MIC Enterococcus faecalis (ATCC 29212) (Enterococcus sp.) | MIC Enterococcus faecalis (GC 2242) (Enterococcus sp.) | MIC Enterococcus faecalis (GC 2691) (Enterococcus sp.) | MIC Enterococcus faecalis (GC 3059) (Enterococcus sp.) | MIC Enterococcus faecalis (GC 4552) (Enterococcus sp.) | MIC Enterococcus faecalis (GC 4554) (Enterococcus sp.) | MIC Enterococcus faecalis (GC 6189) (Enterococcus sp.) | MIC Enterococcus faecium (GC 4556) (Enterococcus sp.)
32 µg/mL: MIC Escherichia coli (ATCC 25922) (Escherichia coli) | MIC Escherichia coli (GC 4559) (Escherichia coli) | MIC Streptococcus pneumoniae (GC 4565) (Streptococcus sp.; [4]) | MIC Streptococcus pneumoniae (GC 4565) (Streptococcus sp.)
16 µg/mL: MIC Streptococcus agalactiae (GC 4564) (Streptococcus sp.; [1]) | MIC Streptococcus pneumoniae (ATCC 6301) (Streptococcus sp.; [2]) | MIC Streptococcus agalactiae (GC 4564) (Streptococcus sp.) | MIC Streptococcus pneumoniae (ATCC 6301) (Streptococcus sp.) | MIC Enterococcus faecalis (GC 4553) (Enterococcus sp.; [11]) | MIC Enterococcus faecium (GC 2243) (Enterococcus sp.; Enterococcus faecium (GC 2243)) | MIC Enterococcus faecalis (GC 4553) (Enterococcus sp.) | MIC Enterococcus faecium (GC 2243) (Enterococcus sp.) | MIC Coagulase Negative Staphylococcus (GC 4551) (Staphylococcus sp.) | MIC Staphylococcus aureus SMITH (GC 4543) (Staphylococcus sp.) | MIC Staphylococcus aureus-SMITH (GC 4543) (Staphylococcus sp.)

CC(c1ccccc1)C1NC(=O)CNC(=O)C(CO)NC(=O)C(C(O)C2CNC(=N)N2C2OC(CO)C(O)C(O)C2O)NC(=O)C(C(O)C2CNC(=N)N2)NC(=O)C(Cc2ccc(O)c(NC(=S)Nc3cc(C(F)(F)F)cc(C(F)(F)F)c3)c2)NC1=O (stereo not drawn) [Example 24, Cyclo[glycyl-β-methylphenylalanyl-3-[[[3,5-bis(trifluoromethyl)phenyl]carbamothioyl]amino]-tyrosyl-3-(2-iminoimidazolidin-4-yl)seryl-3-(3-hexopyranosyl-2-iminoimidazolidin-4-yl)-serylseryl]]
32 µg/mL: MIC Escherichia coli (GC 4560) (Escherichia coli) | MIC Enterococcus faecalis (GC 4553) (Enterococcus sp.; [11]) | MIC Enterococcus faecium (GC 4557) (Enterococcus sp.; Enterococcus faecium (GC 4557)) | MIC Enterococcus faecalis (GC 4553) (Enterococcus sp.) | MIC Enterococcus faecium (GC 4557) (Enterococcus sp.)
64 µg/mL: MIC Streptococcus pneumoniae (GC 1894) (Streptococcus sp.; [3]) | MIC Streptococcus pyogenes (GC 4563) (Streptococcus sp.; [5]) | MIC Streptococcus pneumoniae (GC 1894) (Streptococcus sp.) | MIC Streptococcus pyogenes (GC 4563) (Streptococcus sp.) | MIC Enterococcus avium (GC 4558) (Enterococcus sp.; Enterococcus avium (GC 4558)) | MIC Enterococcus faecalis (ATCC 29212) (Enterococcus sp.; [6]) | MIC Enterococcus faecalis (GC 2242) (Enterococcus sp.; [7]) | MIC Enterococcus faecium (GC 2243) (Enterococcus sp.; Enterococcus faecium (GC 2243)) | MIC Enterococcus faecium (GC 4556) (Enterococcus sp.; Enterococcus faecium (GC 4556)) | MIC Enterococcus avium (GC 4558) (Enterococcus sp.) | MIC Enterococcus faecalis (ATCC 29212) (Enterococcus sp.) | MIC Enterococcus faecalis (GC 2242) (Enterococcus sp.) | MIC Enterococcus faecium (GC 2243) (Enterococcus sp.) | MIC Enterococcus faecium (GC 4556) (Enterococcus sp.)
>64 µg/mL: MIC Escherichia coli (ATCC 25922) (Escherichia coli) | MIC Escherichia coli (GC 4559) (Escherichia coli) | MIC Streptococcus agalactiae (GC 4564) (Streptococcus sp.; [1]) | MIC Streptococcus pneumoniae (ATCC 6301) (Streptococcus sp.; [2]) | MIC Streptococcus pneumoniae (GC 4565) (Streptococcus sp.; [4]) | MIC Streptococcus agalactiae (GC 4564) (Streptococcus sp.) | MIC Streptococcus pneumoniae (ATCC 6301) (Streptococcus sp.) | MIC Streptococcus pneumoniae (GC 4565) (Streptococcus sp.) | MIC Enterococcus faecalis (GC 2691) (Enterococcus sp.; [8]) | MIC Enterococcus faecalis (GC 3059) (Enterococcus sp.; [9]) | MIC Enterococcus faecalis (GC 4552) (Enterococcus sp.; [10]) | MIC Enterococcus faecalis (GC 4554) (Enterococcus sp.; [12]) | MIC Enterococcus faecalis (GC 6189) (Enterococcus sp.; [13]) | MIC Enterococcus faecalis (GC 2691) (Enterococcus sp.) | MIC Enterococcus faecalis (GC 3059) (Enterococcus sp.) | MIC Enterococcus faecalis (GC 4552) (Enterococcus sp.) | MIC Enterococcus faecalis (GC 4554) (Enterococcus sp.) | MIC Enterococcus faecalis (GC 6189) (Enterococcus sp.) | MIC Staphylococcus aureus-SMITH (GC 4543) (Staphylococcus sp.)

Source: US8247211B2, “Glycopeptide antibiotics” (American Cyanamid Company, priority 2001, dated 2012)
